Test results reported in publication PMC5498548.
Converted amounts (≈) assume the structure as drawn. “And” between values parts separate entries of the source, which are not always exact repeats. Equal entries are not always repeated. Structures can show the parent of a compound that is named as a salt. Where two headings read alike, the source gives them in different places.

How the values were obtained:
IdeR [1] = molecular target: T1, IdeR (Mycobacterium tuberculosis, UniProt P9WMH1); test: biochemical; conditions: EMSA
T1 sequence (P9WMH1 whole entry, looked up): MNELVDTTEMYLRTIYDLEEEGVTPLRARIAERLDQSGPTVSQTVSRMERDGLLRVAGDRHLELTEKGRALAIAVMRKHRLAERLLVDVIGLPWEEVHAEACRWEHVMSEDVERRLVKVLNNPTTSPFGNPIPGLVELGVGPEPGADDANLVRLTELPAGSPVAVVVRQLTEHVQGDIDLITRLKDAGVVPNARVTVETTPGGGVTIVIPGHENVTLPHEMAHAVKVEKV

M. tuberculosis = test: Resazurin microtiter assay (REMA) whole cell MIC90 in broth culture; type: cell-based, Mycobacterium tuberculosis; conditions: MB7H9 medium, Mean ± S.E., three experiments; for MIC90: Mycobacterium tuberculosis, read-out: MIC90 of compounds against M. tuberculosis
[2] = test system: THP-1 (human monocytic macrophage cell line); test: Cytotoxicity by REMA in THP-1; type: cell-based; conditions: for Inhibition in THP1 (IC50 in µg/ml): 1-200 µg/ml; for IC50: Homo sapiens, THP-1, 1-200 µg/ml, read-out: Inhibition in THP1 (IC50 in µg/ml)
Description: (§1) The cytotoxicity of the compounds was determined by employing REMA using various mammalian cell lines such as THP-1 (human monocytic macrophage cell line), HEK (Human Embryonic Kidney cell line), MDCK (Madine darby canine kidney cell line) and HepG2 (Human hepatocellular carcinoma cell line). 1 × 10^4 cells/well were employed in a sterilized 96-well plate containing serial dilutions of compounds ranging from 1 µg/ml to 200 µg/ml concentration, in their respective media (RPMI for THP-1, DMEM for HEK and HepG2 and MEM for MDCK) with 10% fetal bovine serum and Antibiotic-Antimycotic mix (Invitrogen Corporation, Carlsbad, California, USA). IC50 is defined as the concentration of the compound that causes 50% reduction in the fluorescence intensity indicating 50% viable cells. IC50 values were determined from the results of at least two independent tests and Mean ± S.E.M was calculated from the inhibition curve using GraphPad Prism 5.

[3] = test system: HEK (Human Embryonic Kidney cell line); test: Cytotoxicity by REMA in HEK; type: cell-based; conditions: 1-200 µg/ml; for IC50: Homo sapiens, read-out: Inhibition in HEK (IC50 in µg/ml)
Description: as §1

[4] = test system: MDCK (Madine darby canine kidney cell line); test: Cytotoxicity by REMA in MDCK; type: cell-based; conditions: 1-200 µg/ml; for IC50: Canis lupus familiaris, MDCK, read-out: Inhibition in MDCK (IC50 in µg/ml)
Description: as §1

[5] = test system: HepG2 (Human hepatocellular carcinoma cell line); test: Cytotoxicity by REMA in HepG2; type: cell-based; conditions: for Inhibition in HepG2 (IC50 in µg/ml): 1-200 µg/ml; for IC50: Homo sapiens, HepG2, 1-200 µg/ml, read-out: Inhibition in HepG2 (IC50 in µg/ml)
Description: as §1

IdeR [6] = molecular target: T1, IdeR; test: EMSA competition experiments with increasing labeled DNA; type: biochemical; conditions: DNA 0.8 pmoles to 12.8 pmoles
[7] = 0.35 µg IdeR, 0.8 picomoles labeled DNA, 200 µM NiSO4, inhibitor 0.4-100 µg/ml, read-out: IC50 (µg/ml) (converted)
[8] = same values given in µM, read-out: IC50
[9] = 0.35 µg IdeR, 0.8 picomoles labeled DNA, 200 µM NiSO4, inhibitor 0.4-100 µg/ml

Compound	IC50 (IdeR [1]; [7])	IC50 (IdeR [1]; [8]) [µM]	IC50 (IdeR [1]; [9])	further results
Nc1ccc(-c2nc3ccccc3s2)cc1 [IS-54, 4-(1,3-benzothiazol-2-yl)aniline]	49.5 µM	49.6		MIC90 of compounds against M. tuberculosis (M. tuberculosis): 84.8 ± 8 µg/mL; MIC90 (M. tuberculosis): 84.8 µg/mL (≈ 375 µM); Inhibition in THP1 (IC50 in µg/ml) [2]: slight toxicity; IC50 [2]: 182 ± 5.2 µg/mL (≈ 802 µM); Inhibition in HEK (IC50 in µg/ml) [3]: slight toxicity; IC50 [3]: 161 ± 4.22 µg/mL (≈ 712 µM); Inhibition in MDCK (IC50 in µg/ml) [4]: slight toxicity; IC50 [4]: 174 ± 6.4 µg/mL (≈ 770 µM); Inhibition in HepG2 (IC50 in µg/ml) [5]: slight toxicity; IC50 [5]: 167 ± 3.78 µg/mL (≈ 740 µM)
COc1ccccc1N=Nc1cc(S(=O)(=O)O)c2ccccc2c1O [IS-59]		48.9	18.64 ± 1.532 µg/mL	
Cc1c2ccccc2nc(C[S+]([O-])c2ccccc2)[n+]1[O-] (stereo not drawn) [Compound I-93, 4-methyl-2-[(phenylsulfinyl)methyl]quinazoline 3-oxide]	181 µM	182		
O=S(=O)([O-])c1cc(N=Nc2c(O)ccc3ccccc23)c2c(S(=O)(=O)[O-])cccc2c1.[Na+].[Na+] [IS-9, 8-[-(2-hydroxynaphthalen-1-yl)diazenyl]naphthalene-1,6-disulfonic acid, disodium salt]		27.6	13.9 ± 7.37 µg/mL	
Cc1ccccc1NC(=O)Nc1cccc(-c2nnc(Cc3ccc4c(c3)OCO4)o2)c1 [IA8, 3-[3-[5-(1,3-benzodioxol-5-ylmethyl)-1,3,4-oxadiazol-2-yl]phenyl]-1-(o-tolyl) urea]	143 µM			
O=C1OC(C=Cc2ccccc2)=NC1=Cc1cccc([N+](=O)[O-])c1 [Compound I-18, 4-(3-nitrobenzylidene)-2-[2-phenylethenyl]-1,3-oxazol5(4H)-one]	43.7 µM	43.7		
Nc1ccc(-c2nc3ccccc3s2)cc1S(=O)(=O)O [IS-32, 2-Amino-5-(1,3-benzothiazol-2-yl) benzenesulfonic acid]	68.3 µM	64.8		
O=S(=O)(O)c1ccc(O)c(/N=N/c2ccc(O)cc2O)c1 [IS-2, Benzensulfonic acid, 3-[(2,4-dihydroxyphenyl)azo]-4-hydroxy]	17.4 µM and 17.7 µM	16.3		
Oc1ccc(/C=N\c2ccccc2/N=C\c2ccc(O)c(O)c2)cc1O [Compound I-103, 4,4`-{benzene-1,2-diylbis[nitrilo(Z)methylylidene]}dibenzene-1,2-diol]	95.6 µM	95.6		
Oc1ccccc1C=Nc1ccccc1N=Cc1ccccc1O [IS-47]		266	84 ± 1.2 µg/mL	
Nc1ccc(N=Nc2ccc(N=Nc3ccc(N=Nc4cc(S(=O)(=O)O)c5ccccc5c4O)c4ccc(S(=O)(=O)O)cc34)c3ccc(S(=O)(=O)O)cc23)cc1 [IS-8, 1-Naphthalenesulfonic acid, 3-[[4-[[4-[(4-aminophenyl)azo]-6-sulfo-1-naphthalenyl]azo]-6-sulfo-1-naphthalenyl]azo]-4-hydroxy-,trisodium salt]	0.813 µM and 0.822 µM	0.75		
O=C(NN=c1ccc([N+](=O)[O-])c[nH]1)Nc1ccc(-c2ccccc2)cc1 [Compound I-89, N-(biphenyl-4-yl)-2-(5-nitropyridin-2(1H)-ylidene)hydrazinecarboxamide]	83.3 µM	83.4		
5[phenylimino)methyl]benzene-1,2,3 triol [IS-51]		72	16.5 µg/mL and 16.52 ± 1.72 µg/mL	
Cc1cc(=O)oc2c(CNC(C)C(=O)O)cc(O)cc12 (stereo not drawn) [Compound I-38]		361	100 ± 3.176 µg/mL	
O=S(=O)(O)c1cccc2cccc(N=Nc3c(O)ccc4ccccc34)c12 [IS-6, 8-[-(2-hydroxynaphthalen-1-yl)diazenyl]naphthalene-1-sulfonic acid]	57.2 µM	54		
Nc1ccc(-c2nc3ccccc3s2)cc1S(=O)(=O)O [Compound I-8, 2amino-5-(1,3-benzothiazol-2-yl) benzene sulfonic acid ammoniate]	≤ 81.6 µM and 78 µM	74		mode of inhibition in competition with DNA (IdeR [6]): competing with DNA; MIC90 of compounds against M. tuberculosis (µg/ml) (M. tuberculosis): no inhibition

Compound	IC50 (IdeR [1]; [7])	IC50 (IdeR [1]; [8]) [µM]	IC50 (IdeR [1]; [9])	further results
O=S(=O)(Nc1c(Cl)c(Cl)c(Cl)c(Cl)c1NS(=O)(=O)c1ccccc1)c1ccccc1 [IS-70, N,N-(3,4,5,6-tetrachlorobenzene-1,2-diyl) dibenzenesulfonamide]		88.3	46.44 ± 1.486 µg/mL	
NC(Cc1c[nH]c2cc(OCc3ccccc3)ccc12)C(=O)O (stereo not drawn) [Compound I-92, 2-amino-3-[6-(benzyloxy)-1H-indol-3-yl]propanoic acid]	189 µM	189		
COc1ccc(-c2nc3ccccc3s2)cc1S(=O)(=O)O [IS-4, 5-(1,3-benzothiazol-2-yl)-2-methoxybenzenesulfonic acid]	45.1 µM	42.1		MIC90 (M. tuberculosis): 100 µg/mL (≈ 311 µM); Inhibition in THP1 (IC50 in µg/ml) [2]: slight toxicity; IC50 [2]: 166 ± 3.72 µg/mL (≈ 516 µM); Inhibition in HEK (IC50 in µg/ml) [3]: slight toxicity; IC50 [3]: 164.7 ± 1.24 µg/mL (≈ 512 µM); Inhibition in MDCK (IC50 in µg/ml) [4]: slight toxicity; IC50 [4]: 173 ± 2.3 µg/mL (≈ 538 µM); Inhibition in HepG2 (IC50 in µg/ml) [5]: slight toxicity; IC50 [5]: 176.3 ± 1.6 µg/mL (≈ 549 µM)
O=S(=O)(O)c1cccc2c(O)c(N=Nc3cccc4ccccc34)ccc12 [IS-55, 1-napthalenesulfonic acid,5-hydroxy-6-(1-naphthalenylazo)]		16.4	6.6 ± 1.95 µg/mL	
O=C(NN1C(=O)C=C(O)C1=Cc1ccccc1)c1ccccc1 [Compound I-112, N-[2-benzylidene-3-hydroxy-5-oxo-2,5-dihydro-1H-pyrrol-1-yl]benzamide]	170 µM	170		
O=C1N[C@H]2CCCC[C@@H]2C(=O)N1OS(=O)(=O)c1ccccc1 [Compound I-91, (4As,8As)-3-[(phenylsulfonyl)oxy]hexahydroquinazoline-2,4(1H,3H)-dione]	231 µM	231		
CO[C@H]1/C=C/O[C@@]2(C)Oc3c(C)c(O)c4c(O)c(c(/C=N/N5CCN(C)CC5)c(O)c4c3C2=O)NC(=O)/C(C)=C\C=C\[C@H](C)[C@H](O)[C@@H](C)[C@@H](O)[C@@H](C)[C@H](OC(C)=O)[C@@H]1C [Rifampicin, reference compound]				MIC90 (M. tuberculosis): 0.05 to 0.2 µg/mL (≈ 0.0608 to 0.243 µM); IC50 [2]: > 100 µg/mL; IC50 [3]: > 100 µg/mL; IC50 [4]: > 100 µg/mL; IC50 [5]: > 100 µg/mL
O=S(=O)(Nc1ccc(Cl)cc1NS(=O)(=O)c1ccccc1)c1ccccc1 [Compound I-85, N,N`-(4-chlorobenzene-1,2-diyl)dibenzenesulfonamide]	67.2 µM	67.1		
Cc1ccccc1N=Nc1ccc2c(S(=O)(=O)[O-])cccc2c1O.[Na+] [Compound I-90, 1-Naphthalenesulfonic acid,5-hydroxy-6-[(2-methylphenyl)azo]-monosodium salt]		124	45.27 ± 1.3 µg/mL	
O=S(=O)(O)c1ccc2c(N=Nc3cccc4ccccc34)c(O)c(S(=O)(=O)O)cc2c1 [IS-45, 2,7-naphthalenedisulfonic acid, 3-hydroxy-4-(1-napthalenylazo)]		40	20.19 ± 1.74 µg/mL	
NC(CC(=O)O)C(=O)OCc1cccc(/N=N/c2ccccc2)c1 (stereo not drawn) [Compound I-21]	16.7 µM	16.8		mode of inhibition in competition with DNA (IdeR [6]): competing with DNA
Cc1cc(=O)oc2c(CNC(C(=O)O)C(C)O)c(O)ccc12 (stereo not drawn) [IS-40, 3-hydroxy-2-{[(7-hydroxy-4-methyl-2-oxo-2H-chromen-8-yl)methyl]amino}butanoic acid]	269 µM	275		
CC(NCc1c(O)ccc2ccc(=O)oc12)C(=O)O (stereo not drawn) [Compound I-39]	53.9 µM	54		mode of inhibition in competition with DNA (IdeR [6]): competing with DNA
4-oxo-3-({4-[-(4-sulfophenyl)diazenyl]phenyl}hydrazono)-3,4-dihydro-1-naphtalenesulfonic acid [IS-7]		57.5	32.13 ± 1.56 µg/mL	
O=S(=O)(O)c1ccc(O)c(/N=N/c2ccc(O)cc2O)c1 [IS-12, Benzene sulfonic acid, 3-[(2,4-dihydroxyphenyl)azo]-4-hydroxy]	15.1 µM	15.2		
